Source: BindingDB's records for doi:10.1016/s0960-894x(03)00136-7 (2003)

Target: Serine/threonine-protein phosphatase 2A catalytic subunit alpha (Homo sapiens) (UniProt P67775)
Assay: Inhibitory activity against protein phosphatase (PP2A) using fluorescein diphosphate as substrate

Chain of Serine/threonine-protein phosphatase 2A catalytic subunit alpha (Homo sapiens) (P67775 whole entry, looked up): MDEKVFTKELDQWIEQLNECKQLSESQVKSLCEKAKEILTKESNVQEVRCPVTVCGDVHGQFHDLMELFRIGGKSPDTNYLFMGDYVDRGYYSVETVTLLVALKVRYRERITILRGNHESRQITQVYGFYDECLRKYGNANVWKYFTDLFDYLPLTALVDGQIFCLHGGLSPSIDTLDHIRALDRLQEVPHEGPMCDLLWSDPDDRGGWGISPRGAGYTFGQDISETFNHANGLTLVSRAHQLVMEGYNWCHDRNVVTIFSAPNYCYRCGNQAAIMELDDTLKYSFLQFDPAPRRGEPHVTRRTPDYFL

IC50 [µM]	SMILES
< 10	C=C([C@@H](O)C[C@H](O)[C@@]1(C)CC[C@H](C(C)(C)O)O1)[C@H]1CC[C@H]2O[C@@H]([C@]3(C)CC[C@@H](Br)C(C)(C)O3)CC[C@]2(C)O1
< 10	CC(C)(O)[C@H]1CC[C@](C)([C@@H](O)CC[C@](O)(CO)C2=CC[C@H]3O[C@@H]([C@]4(C)CC[C@@H](Br)C(C)(C)O4)CC[C@]3(C)O2)O1
